This is an account of results in PMC9861830, “Hydroxylated Coumarin-Based Thiosemicarbazones as Dual Antityrosinase and Antioxidant Agents” (International Journal of Molecular Sciences, 2023).

Where only a bound is given, the exact number is not on record here.

The nature of data set [1]: Potentiometric and spectrophotometric titrations (protonation constants, speciation). Format: physicochemical. The note with it: for Logβ / pK: 25 °C, NaCl 0.1 M; for species present at pH of the enzymatic inhibitory studies: pH 6.8. The protocol: Potentiometric titrations were performed in a thermostated vessel at 25 °C in 0.1 M ionic strength (NaCl) using a Mettler-Toledo Seven Compact pH/Ion-meter and equipped with a Mettler-Toledo InLab Micro Pro combined glass electrode with an integrated temperature probe. The glass electrode was calibrated daily and checked using the GLEE software package. UV–visible (UV–Vis) measurements were carried out with an Agilent Cary 60 spectrophotometer using a 0.1 cm quartz cuvette. Protonation constants of the studied molecules were determined via spectrophotometric and potentiometric titrations. Solutions of ligands were prepared daily by dissolving a suitable amount of the compound in DMSO (concentration ≈ 12 mM) prior to the required dilution in 0.1 M NaCl (final DMSO content 1% V/V, concentration ≈ 1.2∙10^−4 M). Four HCl equivalents for T1, five for T2–4, and six for T5–6 were added before titrating with an NaOH standard solution. Potentiometric and spectrophotometric data were simultaneously analysed using the Hyperquad 2006 software package. Speciation diagrams were obtained using Hyss 2009 program with the spectrophotometric data. The number of linearly independent absorbing species was found by applying the eigenvalue analysis to the absorbance data matrix.

The next data set addresses mushroom tyrosinase. Description: Tyrosinase inhibition assay (L-DOPA, dopachrome at 492 nm; Lineweaver–Burk plots). It is filed as biochemical. Conditions: for IC50: L-DOPA 0.5 mM, pH 6.8, 37 °C, mean ± SD, three experiments; for Ki: secondary plot of slope, read-out: Ki (inhibitor binding with free enzyme); for inhibition mode: Lineweaver–Burk plots, L-DOPA. On the procedure: The inhibition of mushroom tyrosinase was evaluated as previously described with slight modifications. A mixture containing 50 mM phosphoric acid buffer solution (pH 6.8), a solution of mushroom tyrosinase (72 U/mL final concentration; Sigma Chemical Co., Milan, Italy), and DMSO with or without the sample were incubated at 37 °C for 10 min. Then, L-DOPA solution (0.5 mM final) was added, and the reaction was monitored following the molecular absorbance at 492 nm that resulted from the formation of the dopachrome product. Measurements were performed using a FLUOstar OPTIMA (BMG Labtech, Offenburg, Germany). […] The inhibition mode was analysed using the Lineweaver–Burk plots.

Data set [2] in a line: ABTS radical scavenging assay. Conditions: absorbance at 734 nm after 1 min; mean ± SEM, three experiments. On the procedure: (§1) Radical scavenging activities were measured with DPPH and ABTS radical scavenging assays. […] In brief, for the DPPH antioxidant assay procedure, each test compound was dissolved in DMSO at 1.0 mM concentration and then diluted with absolute ethanol in the 500–2.0 µM concentration range. A solution of the DPPH radical (0.1 mM, absolute ethanol) was freshly prepared, stored in the dark, and used within a few hours. Each test solution (1500 µL) was vigorously mixed to an equal volume of DPPH inside a cuvette, and the molecular absorbance at 517 nm was recorded for 30 min. Each test was evaluated in three independent experiments. Ascorbic acid was used as the reference compound. For the ABTS method, based on the capacity of an antioxidant to scavenge the free ABTS^+ generated in the aqueous phase by reacting with a strong oxidizing, the free radical ABTS was produced by reacting 7 mM ABTS with 2.45 mM potassium persulfate in aqueous solution and kept in darkness at room temperature for 24 h before use. Samples of each compound (10 µL) were added to 990 µL of ABTS, and the reduction of the blue-green radical ABTS by hydrogen-donating antioxidants was evaluated by measuring the absorbance at 734 nm after 1 min incubation. The 6-hydroxy-2,5,7,8-tetramethylchromane-2-carboxylic acid (Trolox) was used as the antioxidant standard.

Data set [3] can be described thus: DPPH radical scavenging assay. Conditions: for EC50: ethanol, absorbance at 517 nm, 30 min, mean ± SEM, three experiments. On the procedure:
The antioxidant activity of T1 and its hydroxylated derivatives T2–6 was evaluated via DPPH assay, which is based on the ability of the stable DPP· radical species to be converted in its diamagnetic form (DPPH) by accepting an H· from the tested compound. […] From the evaluation of the relative decrease in absorbance at different concentrations of each tested compound, the antioxidant activities were evaluated by reporting their EC50 values, as shown in Table 1.
as §1
(Loss of DPPH colour is used to gauge radical scavenging.)

Data set [4] can be described thus: Cell viability assay (MTT). Format: cell-based, Murine. Conditions: mouse, B16F10 melanoma cells, 100 μM, percentage of control. The protocol: (§2) The cellular cytotoxicity of compound T6 was investigated using a 3-(4,5-dimethylthiazol-2-yl)-2,5-diphenil-tetrazolium bromide (MTT) assay. Murine melanoma B16F10 cells were seeded in 96-well plates at a density of 5 × 10^3 cells/well and cultured in Dulbecco’s Modified Eagle Medium (DMEM) with 10% fetal bovine serum at 37 °C in a humidified atmosphere with 5% CO2. The B16F10 cell line was exposed for 48 h to compound T6 at concentrations ranging from 4 to 100 μM. After incubation, culture supernatants were removed and exchanged with a medium containing 0.5 mg/mL MTT. Then, after 3 h of incubation at 37 °C, the cells were lysed with 100 μL of DMSO. The absorbance was determined at 560 nm using a microplate reader (Multiskan FC-Thermo Scientific Inc. Waltham, MA, USA).

For another data set, the system named is B16F10 cells. Description: Cell viability assay (MTT). Format: cell-based, Murine. The note with it: 48 h. The protocol: as §2
The mark [5] stands for this setting: L + H^+ ⇌ HL (first protonation).

Usually IC50 stands for the concentration needed to halve the response being measured. What is called EC50 is the concentration at which the effect is half-maximal. Low values mean greater potency, high ones weaker potency. As for `C/C(=N\NC(N)=S)c1cc2ccc(O)cc2oc1=O` [T3, (1E)-2-(1-(7-hydroxy-2-oxo-2H-chromen-3-yl)ethylidene)hydrazine-1-carbothioamide], the Logβ in data set [1] (L + 2H^+ ⇌ H2L) is 17.6 (1); in data set [1] (L + 3H^+ ⇌ H3L), 23.26 (7); in data set [1] (L + 4H^+ ⇌ H4L), 26.7 (1); in data set [1] (setting [5]), 10.5 (1). Also, the pK was 10.5 in data set [1] (setting [5]), 7.1 in data set [1] (step to H2L), 5.7 in data set [1] (step to H3L) and 3.4 in data set [1] (step to H4L). Moreover, at mushroom tyrosinase, the IC50 is 5 ± 2 µM. Also, the values for the EC50 in data set [2] and in data set [3] were 36 ± 1 µM and more than 250 µM, respectively.
Usually melting point stands for the temperature of the solid-liquid transition. On to `C/C(=N\NC(N)=S)c1cc2cc(O)c(O)cc2oc1=O` [T5, (1E)-2-(1-(6,7-dihydroxy-2-oxo-2H-chromen-3-yl)ethylidene)hydrazine-1-carbothioamide], for which the melting point was 228 to 230 °C (dec.). The Logβ in data set [1] (L + 2H^+ ⇌ H2L) is 18.46 (9). Also, the Logβ in data set [1] (L + 3H^+ ⇌ H3L) was 24.76 (7). Besides, in data set [1] (L + 4H^+ ⇌ H4L), the Logβ is 29.50 (6). Besides, in data set [1] (setting [5]), the Logβ is given as 10.7 (1) and the pK turned out to be 10.7. Besides, the pK in data set [1] (step to H2L) is 7.8. In addition, the pK in data set [1] (step to H3L) came to 6.3. Besides, the pK in data set [1] (step to H4L) was 4.7. In data set [1], the “species present at pH of the enzymatic inhibitory studies” value is “monoanionic form, H2L^-”. Moreover, the IC50 against mushroom tyrosinase was found to be 6 ± 2 µM. In data set [2], this compound had an EC50 of 9 ± 1 µM. Moreover, in data set [3], the EC50 stood at 7.1 ± 0.3 µM.
In turn, `O=C1O[C@H]([C@@H](O)CO)C(O)=C1O` [Ascorbic Acid, Ascorbic acid, reference compound] returned an EC50 in data set [3] of 18.6 ± 0.6 µM.
In general, viability refers to a read-out of living cells in per cent, often relative to untreated cells. Higher therefore signals better survival. For orientation: Ki means the dissociation constant of the complex between target and ligand, obtained from inhibition or displacement. For `C/C(=N\NC(N)=S)c1cc2ccc(O)c(O)c2oc1=O` [T6, (1E)-2-(1-(7,8-dihydroxy-2-oxo-2H-chromen-3-yl)ethylidene)hydrazine-1-carbothioamide], the melting point is 228 to 230 °C (dec.). Moreover, in data set [1] (L + 2H^+ ⇌ H2L), the Logβ is recorded as 19.3 (1). Also, the Logβ in data set [1] (L + 3H^+ ⇌ H3L) is given as 25.1 (1). In addition, the Logβ in data set [1] (L + 4H^+ ⇌ H4L) is on record as 29.5 (1). For the same compound, in data set [1] (setting [5]), the Logβ is given as 10.5 (2) and the pK came to 10.5. Besides, the pK in data set [1] (step to H2L) turned out to be 8.8. For the same compound, in data set [1] (step to H3L), the pK was 5.8. The same compound had a pK in data set [1] (step to H4L) of 4.4. Further, the “species present at pH of the enzymatic inhibitory studies” value in data set [1] is “monoanionic form, H2L^-”. The compound further had a viability at 48 h, 100 µM in data set [4] of more than 90%. Also, the “cytotoxic effect (in words)” value in the data set on B16F10 cells (4 μM) is listed as “no cytotoxic effect”. Further, the “cytotoxicity (in words)” value in the data set with B16F10 cells (4–100 μM) was “not cytotoxic”. Besides, on mushroom tyrosinase, the IC50 came to 4.1 ± 0.7 µM and the inhibition mode result was “mixed-type inhibitor”. For the same compound, the “Kis (inhibitor binding with enzyme–substrate complex)” value on mushroom tyrosinase (L-DOPA substrate, secondary plot of 1/Vmax) was determined as 10.65 µM. The Ki at mushroom tyrosinase (L-DOPA substrate) was 5.88 µM. This compound also registered an EC50 in data set [2] of 8.8 ± 0.4 µM. The EC50 in data set [3] was 17.9 ± 0.4 µM.
With `C/C(=N\NC(N)=S)c1cc2cc(O)ccc2oc1=O` [T2, (1E)-2-(1-(6-hydroxy-2-oxo-2H-chromen-3-yl)ethylidene)hydrazine-1-carbothioamide], the melting point was 222 to 224 °C (dec.). Further, the Logβ in data set [1] (L + 2H^+ ⇌ H2L) is 17.24 (6). For the same compound, the Logβ in data set [1] (L + 3H^+ ⇌ H3L) was 22.4 (1). Moreover, the Logβ in data set [1] (L + 4H^+ ⇌ H4L) is listed as 26.7 (1). Further, in data set [1] (setting [5]), the Logβ was 10.20 (8) and the pK is 10.2. This compound also displayed a pK in data set [1] (step to H3L) of 5.4. The pK in data set [1] (step to H4L) was 4.3. This compound registered an IC50 at mushroom tyrosinase of 14 ± 7 µM. In data set [2], this compound showed a concentration giving a half-maximal response (EC50) of 25.7 ± 0.4 µM. Also, the EC50 in data set [3] was more than 250 µM.
`C/C(=N\NC(N)=S)c1cc2cccc(O)c2oc1=O` [T4, (1E)-2-(1-(8-hydroxy-2-oxo-2H-chromen-3-yl)ethylidene)hydrazine-1-carbothioamide]: the melting point is 208 to 210 °C (dec.). The Logβ in data set [1] (L + 2H^+ ⇌ H2L) was 17.26 (1). Further, the Logβ in data set [1] (L + 3H^+ ⇌ H3L) is on record as 22.94 (5). Also, the Logβ in data set [1] (L + 4H^+ ⇌ H4L) is 26.5 (2). Further, in data set [1] (setting [5]), the Logβ was 10.4 (1) and the pK is on record as 10.4. The same compound gave a pK in data set [1] (step to H2L) of 6.9. In data set [1] (step to H3L), the pK was 5.7. The compound further returned a pK in data set [1] (step to H4L) of 3.6. On mushroom tyrosinase, the IC50 is 5.7 ± 0.8 µM. The compound also came in with an EC50 in data set [2] of 21.8 ± 0.8 µM. The compound also returned an EC50 in data set [3] of 28 ± 2 µM. The “radical scavenging / antioxidant activity in DPPH assay (in words)” value in data set [3] (in comparison with ascorbic acid) is on record as “modest antioxidant activity”.
For `C/C(=N\NC(N)=S)c1cc2ccccc2oc1=O` [T1, (1E)-2-(1-(2-oxo-2H-chromen-3-yl)ethylidene)hydrazine-1-carbothioamide], the figures for the Logβ in data set [1] (L + 2H^+ ⇌ H2L), in data set [1] (L + 3H^+ ⇌ H3L) and in data set [1] (setting [5]) were 13.47 (9), 17.45 (8) and 8.46 (9), respectively. Further, the pK turned out to be 8.5 in data set [1] (setting [5]), 5.0 in data set [1] (step to H2L) and 4.0 in data set [1] (step to H3L). Moreover, the “species present in blood plasma” value in data set [1] (pH 7.4) was “neutral form (as HL)”. For the same compound, on mushroom tyrosinase, the IC50 came to 4 ± 2 µM. Also, the inhibition constant (Ki) at mushroom tyrosinase (L-DOPA substrate) was 0.85 µM. In addition, the inhibition mode entry in the data set with mushroom tyrosinase is listed as “competitive inhibition”. In addition, the EC50 is 72 ± 6 µM in data set [2] and more than 250 µM in data set [3].
Consider `Cc1c(C)c2c(c(C)c1O)CCC(C)(C(=O)O)O2` (stereo not drawn) [Trolox, 6-hydroxy-2,5,7,8-tetramethylchromane-2-carboxylic acid, reference compound], for which, in data set [2], the EC50 was found to be 13 ± 1 µM.
